Columns and labels:
TRE3G-GFP reporter gene = TRE3G-GFP reporter gene activation in HCT116, dCas9 + MS2-FKBP*x2 (F36V) system, flow cytometry; type: cell-based, human; set-up: fold change, GFP: reference not given here; settings: for fold change, GFP: FIG. 5A; for fold change, GFP / fold change, GFP (TRE3G gRNA vs NT gRNA): 10 nM; for fold change, GFP (TRE3G gRNA vs NT gRNA): FIG. 1C, 48 hours; for % repress, GFP (no AP1867 vs AP1867 added): FIG. 1D
CXCR4 = CXCR4 mRNA activation in HCT116 stably expressing dCas9 and MS2-FKBP*x2, qRT-PCR; type: cell-based, human; settings: FIG. 2C; 5 nM; 48 hrs
Description: To further explore the activation potential of the SLF*-CEMa, their ability to target endogenous genes was evaluated (FIGS. 2A and 2B). Lentivirus was used to establish a stable HCT116 cell line expressing dCas9 and MS2-FKBP*x2 constructs, selecting for cells with antibiotic resistance. […] All CEMs were screened for their ability to activate the CXCR4 gene at 5 nM (FIG. 2C). RNA extraction and quantitative RT-PCR (qRT-PCR) were performed after 48 hours of CEM treatment.
To determine the optimal treatment concentration of the SLF*-CEMa molecules in this context, HCT116 cells were treated with 1 nM, 5 nM, 25 nM, and 50 nM of CEM203, CEM207, or CEM87. […] After 48 hours, RNA extraction followed by qRT-PCR was performed to evaluate the change in mRNA expression of CXCR4 (FIG. 2D). […] To directly compare this induced activation to other CRISPR-Cas9-based epigenetic activators, dCas9-VPR and dCas9-p300 constructs were virally infected into HCT116 cells and CXCR4 activation assessed in a similar fashion (FIGS. 2A and 2B).
To determine the time at which SLF*-CEMa most effectively induces gene activation, CXCR4 gene expression changes over time were investigated in dCas9 and MS2-FKBP*x2 stably infected HCT116 cells. Cells were treated with either vehicle, […] (FIG. 3A). RNA extraction and qRT-PCR were performed at 12, 24, 48, 72, and 96 hrs time points (FIG. 3B).
To investigate if endogenous gene activation triggered by the SLF*-CEMa compounds is also reversible, HCT116 cells were treated with CEM203 (50 nM) or CEM207 (25 nM) for 24 hours after transfecting CXCR4 gRNA, and then the CEMs were removed by media exchange at various time points. […] Likewise, it was investigated whether treatment with excess AP1867 could further reverse gene activation, potentially in a more robust fashion than with washout alone if there is any remaining intracellular SLF*-CEMa. To test this, after 24 hours of SLF*-CEMa treatment, a media exchange containing 20 μM AP1867 was performed (FIGS. 3C and 3D).
RNA extraction and qRT-PCR. All RNA extraction experiments were conducted in 12-well plate format. Culturing medium was removed, and cells were washed with 1×PBS, following with 0.05% trypsin to disassociate. After being quenched by medium and centrifuged, cells were washed with 1×PBS, and the RNA extraction was performed by using RNeasy Plus Mini kit (Qiagen, 74134). RT-qPCR was conducted by using RNA-to CT 1-step kit (Thermo Fisher Scientific, 4389986). The primer sets used in quantifying each gene can be found in Table 4.

SMILES	fold change, GFP (TRE3G-GFP reporter gene; NT gRNA, 48 hrs) [fold]	fold change, GFP (TRE3G-GFP reporter gene; TRE3G gRNA, 48 hrs) [fold]	fold change, CXCR4 mRNA (Treated vs Non-Treated) (CXCR4) [fold]	fold change, GFP (TRE3G gRNA vs NT gRNA) (TRE3G-GFP reporter gene) [fold]	% repress, GFP (no AP1867 vs AP1867 added) (TRE3G-GFP reporter gene; TRE3G gRNA, CEM207 5 nM + AP1867 5 μM) [%]	% repress, GFP (no AP1867 vs AP1867 added) (TRE3G-GFP reporter gene; TRE3G gRNA, CEM207 5 nM + AP1867 10 μM) [%]	% repress, GFP (no AP1867 vs AP1867 added) (TRE3G-GFP reporter gene; TRE3G gRNA, CEM207 5 nM + AP1867 20 μM) [%]	fold change, GFP (no AP1867 vs AP1867 added) (TRE3G-GFP reporter gene; FIG. 5B, TRE3G gRNA, CEM207 5 nM + AP1867 500 nM, 48 hrs)
CC[C@H](C(=O)N1CCCC[C@H]1C(=O)O[C@H](CCc1ccc(OC)c(OC)c1)c1cccc(OCC(=O)NCCOCCOCCOCCOCCNC(=O)C[C@@H]2N=C(c3ccc(Cl)cc3)c3c(sc(C)c3C)-n3c(C)nnc32)c1)c1cc(OC)c(OC)c(OC)c1 [CEM209, (R)-1-(3-((20-((S)-4-(4-Chlorophenyl)-2,3,9-trimethyl-6H-thieno[3,2-f][1,2,4]triazolo[4,3-a][1,4]diazepin-6-yl)-2,19-dioxo-6,9,12,15-tetraoxa-3,18-diazaicosyl)oxy)phenyl)-3-(3,4-dimethoxyphenyl) propyl(S)-1-((S)-2-(3,4,5-trimethoxyphenyl)butanoyl) piperidine-2-carboxylate]	0.5	4.3	11.1	–	–	–	–	–
CC[C@H](C(=O)N1CCCC[C@H]1C(=O)O[C@H](CCc1ccc(OC)c(OC)c1)c1cccc(OCC(=O)NCCOCCOCCOCCOCCOCCOCCNC(=O)C[C@@H]2N=C(c3ccc(Cl)cc3)c3c(sc(C)c3C)-n3c(C)nnc32)c1)c1cc(OC)c(OC)c(OC)c1 [CEM211, (R)-1-(3-((26-((S)-4-(4-Chlorophenyl)-2,3,9-trimethyl-6H-thieno[3,2-f][1,2,4]triazolo[4,3-a][1,4]diazepin-6-yl)-2,25-dioxo-6,9,12,15,18,21-hexaoxa-3,24-diazahexacosyl)oxy)phenyl)-3-(3,4-dimethoxyphenyl) propyl(S)-1-((S)-2-(3,4,5-trimethoxyphenyl)butanoyl) piperidine-2-carboxylate]	0.4	7.8	8.5	–	–	–	–	–
CC[C@H](C(=O)N1CCCC[C@H]1C(=O)O[C@H](CCc1ccc(OC)c(OC)c1)c1cccc(OCC(=O)NCCOCCOCCOCCOCCOCCOCCOCCNC(=O)C[C@@H]2N=C(c3ccc(Cl)cc3)c3c(sc(C)c3C)-n3c(C)nnc32)c1)c1cc(OC)c(OC)c(OC)c1 [CEM212, (R)-1-(3-((29-((S)-4-(4-Chlorophenyl)-2,3,9-trimethyl-6H-thieno[3,2-f][1,2,4]triazolo[4,3-a][1,4]diazepin-6-yl)-2,28-dioxo-6,9,12,15,18,21,24-heptaoxa-3,27-diazanonacosyl)oxy)phenyl)-3-(3,4-dimethoxyphenyl) propyl(S)-1-((S)-2-(3,4,5-trimethoxyphenyl)butanoyl) piperidine-2-carboxylate]	0.4	6.1	12.6	–	–	–	–	–
CC[C@H](C(=O)N1CCCC[C@H]1C(=O)O[C@H](CCc1ccc(OC)c(OC)c1)c1cccc(OCC(=O)NCCOCCOCCOCCOCCOCCNC(=O)C[C@@H]2N=C(c3ccc(Cl)cc3)c3cc(OC)ccc3-n3c(C)nnc32)c1)c1cc(OC)c(OC)c(OC)c1 [CEM204, (1R)-1-(3-((23-((4S)-6-(4-Chlorophenyl)-8-methoxy-1-methyl-4H-benzo[f][1,2,4]triazolo[4,3-a][1,4]diazepin-4-yl)-2,22-dioxo-6,9,12,15,18-pentaoxa-3,21-diazatricosyl)oxy)phenyl)-3-(3,4-dimethoxyphenyl) propyl (2S)-1-((S)-2-(3,4,5-trimethoxyphenyl)butanoyl) piperidine-2-carboxylate]	0.3	5.7	7.2	–	–	–	–	–
CC[C@H](C(=O)N1CCCC[C@H]1C(=O)O[C@H](CCc1ccc(OC)c(OC)c1)c1cccc(OCC(=O)NCCOCCOCCOCCOCCOCCOCCNC(=O)C[C@@H]2N=C(c3ccc(Cl)cc3)c3cc(OC)ccc3-n3c(C)nnc32)c1)c1cc(OC)c(OC)c(OC)c1 [CEM205, (1R)-1-(3-((26-((4S)-6-(4-Chlorophenyl)-8-methoxy-1-methyl-4H-benzo[f][1,2,4]triazolo[4,3-a][1,4]diazepin-4-yl)-2,25-dioxo-6,9,12,15,18,21-hexaoxa-3,24-diazahexacosyl)oxy)phenyl)-3-(3,4-dimethoxyphenyl) propyl (2S)-1-((S)-2-(3,4,5-trimethoxyphenyl)butanoyl) piperidine-2-carboxylate]	0.4	6.9	8.8	–	–	–	–	–
CC[C@H](C(=O)N1CCCC[C@H]1C(=O)O[C@H](CCc1ccc(OC)c(OC)c1)c1cccc(OCC(=O)NCCOCCOCCOCCNC(=O)C[C@@H]2N=C(c3ccc(Cl)cc3)c3c(sc(C)c3C)-n3c(C)nnc32)c1)c1cc(OC)c(OC)c(OC)c1 [CEM208, (R)-1-(3-((17-((S)-4-(4-Chlorophenyl)-2,3,9-trimethyl-6H-thieno[3,2-f][1,2,4]triazolo[4,3-a][1,4]diazepin-6-yl)-2,16-dioxo-6,9,12-trioxa-3,15-diazaheptadecyl)oxy)phenyl)-3-(3,4-dimethoxyphenyl) propyl(S)-1-((S)-2-(3,4,5-trimethoxyphenyl)butanoyl) piperidine-2-carboxylate]	0.4	8.1	11.5	–	–	–	–	–
CC[C@H](C(=O)N1CCCC[C@H]1C(=O)O[C@H](CCc1ccc(OC)c(OC)c1)c1cccc(OCC(=O)NCCOCCOCCNC(=O)C[C@@H]2N=C(c3ccc(Cl)cc3)c3cc(OC)ccc3-n3c(C)nnc32)c1)c1cc(OC)c(OC)c(OC)c1 [CEM201, (1R)-1-(3-((14-((4S)-6-(4-Chlorophenyl)-8-methoxy-1-methyl-4H-benzo[f][1,2,4]triazolo[4,3-a][1,4]diazepin-4-yl)-2,13-dioxo-6,9-dioxa-3,12-diazatetradecyl)oxy)phenyl)-3-(3,4-dimethoxyphenyl) propyl (2S)-1-((S)-2-(3,4,5-trimethoxyphenyl)butanoyl) piperidine-2-carboxylate]	0.6	8.2	5.8	–	–	–	–	–
CC[C@H](C(=O)N1CCCC[C@H]1C(=O)O[C@H](CCc1ccc(OC)c(OC)c1)c1cccc(OCC(=O)NCCOCCOCCOCCOCCOCCOCCOCCNC(=O)C[C@@H]2N=C(c3ccc(Cl)cc3)c3cc(OC)ccc3-n3c(C)nnc32)c1)c1cc(OC)c(OC)c(OC)c1 [CEM206, (1R)-1-(3-((29-((4S)-6-(4-Chlorophenyl)-8-methoxy-1-methyl-4H-benzo[f][1,2,4]triazolo[4,3-a][1,4]diazepin-4-yl)-2,28-dioxo-6,9,12,15,18,21,24-heptaoxa-3,27-diazanonacosyl)oxy)phenyl)-3-(3,4-dimethoxyphenyl) propyl (2S)-1-((S)-2-(3,4,5-trimethoxyphenyl)butanoyl) piperidine-2-carboxylate]	0.3	8.5	13.9	–	–	–	–	–
CC[C@H](C(=O)N1CCCC[C@H]1C(=O)O[C@H](CCc1ccc(OC)c(OC)c1)c1cccc(OCC(=O)NCCOCCOCCOCCOCCOCCNC(=O)C[C@@H]2N=C(c3ccc(Cl)cc3)c3c(sc(C)c3C)-n3c(C)nnc32)c1)c1cc(OC)c(OC)c(OC)c1 [CEM210, (R)-1-(3-((23-((S)-4-(4-Chlorophenyl)-2,3,9-trimethyl-6H-thieno[3,2-f][1,2,4]triazolo[4,3-a][1,4]diazepin-6-yl)-2,22-dioxo-6,9,12,15,18-pentaoxa-3,21-diazatricosyl)oxy)phenyl)-3-(3,4-dimethoxyphenyl) propyl(S)-1-((S)-2-(3,4,5-trimethoxyphenyl)butanoyl) piperidine-2-carboxylate]	0.4	8.5	12.0	–	–	–	–	–
CCNC(=O)C[C@@H]1N=C(c2ccc(Cl)cc2)c2cc(OC)ccc2-n2c(C)nnc21 [iBET762, reference compound]	–	–	–	2.4	–	–	–	–
CC[C@H](C(=O)N1CCCC[C@H]1C(=O)O[C@H](CCc1ccc(OC)c(OC)c1)c1cccc(OCC(=O)O)c1)c1cc(OC)c(OC)c(OC)c1 [AP1867, reference compound]	–	–	–	1.4	45	84	91	No change in GFP expression
